Test results: patent US20140328795A1, “VIRUCIDAL SMALL MOLECULE AND USES THEREOF” (The Texas A&M University System, priority 2012, published 2014)
Like-named read-outs stand apart in the source and are kept apart here.

How the values were obtained:
[1] = tested on: DC-associated HIV-1; format: cell-based; conditions: 10 μM PD added to DC 2 h after virus, pseudotyped NL4.3ΔEnv-eGFP/gp160 Env virus, Jurkat T cells, 3 days
[2] = tested on: SIV; assay: SIV infectivity assay in TZM-bl cells (β-galactosidase); format: cell-based; conditions: Simian immunodeficiency virus; for IC90: IC90 per footnote, read-out: IC50 (the source's name)
[3] = tested on: HSV-2 (333); format: cell-based; conditions: 2 μM and 0.2 μM PD
Description: (§1) FIGS. 16A-16B depict effectiveness of PD against HSV. PD blocks HSV infection. Vero cells were seeded in a 24-well plate and infected with HSV-1 (Syn 17) or HSV-2 (333) (FIG. 16A). PD (200 nM) or control DMSO (0.01%) was added immediately to the target cells after viral inoculation. Two days later, the cells were harvested, stained with antibody against HSV glycoprotein gD and analyzed by flow cytometry. Error bars represent standard deviation of triplicate samples. Results are representative of two independent experiments. PD Destabilizes HSV particles (FIG. 16B). Concentrated HSV (˜20 μg/mL) was incubated with DMSO (0.01%) or PD (200 nM) for 30 min at 37° C. and the mixture was immediately loaded over a 20-70% sucrose density gradient. The amount of HSV glycoprotein gpB in each fraction was analyzed by ELISA. The sucrose gradient density of each fraction was determined by measuring the refractive index. Results are representative of 2 independent experiments. Error bars represent the standard deviation of triplicate samples.
(§2) Vero cells (2×10^5 cells/well) were seeded in a 24 well plate. The next day, these cells were infected with increasing titers (MOI range 0.0001-1) of HSV-1 (Syn 17) or HSV-2 (333) in the presence of PD (2 μM and 200 nM) or control DMSO (0.01%) prepared in DMEM in the absence of serum. Two days post-inoculation, cells were harvested, fixed with 5% paraformaldehyde (PFA) in PBS, stained with antibodies against HSV glycoprotein gD (Novus biological, Littleton, Colo.) and analyzed by flow cytometry.
(§3) Applicants investigated the ability of PD to inactivate HSV-1 and -2. Vero cells were infected with HSV-1 and HSV-2 in the presence of PD (2 μM and 0.2 μM) or DMSO (0.01%). These concentrations were selected based on their closeness to the in vitro IC50 of PD against HIV-1. Infection was quantified by the cell surface expression of HSV gD. […] Similar results were obtained for both concentrations and the data from the lowest concentration is presented.

[4] = tested on: HSV-1 (Syn 17); format: cell-based; conditions: 2 μM and 0.2 μM PD
Description: as §1, §2, §3

[5] = tested on: commensal Lactobacillus species; assay: Lactobacillus toxicity testing, all strains together; format: cell-based
Description: Reference strains of L. crispatus and L. jensenii were obtained from the ATCC (Manassas, Va.) and cultured on Columbia blood agar plates at 35° C. in air enriched with 6% CO2. Bacterial suspensions were prepared in saline or ACES buffer to a density of 2 McFarland units (˜2×10^8 bacteria/mL), and exposed to PD (300 μM) or DMSO (10%) for 30 minutes at 37° C. After incubation, the cells were serially diluted in ACES buffer, pH 7.0 (Sigma-Aldrich, St. Louis, Mo.) and plated on blood agar plates to quantify colony forming unit per mL (CFU/mL)
Different bacterial strains were incubated with 300 μM PD or solvent DMSO-containing control media at 37° C. for 30 min and plated on blood agar plates to estimate their corresponding colony forming units per ml (CFU/ml). Less than 1 log difference between control and test CFU is considered non-toxic17.

[6] = tested on: primary CD4+ T-lymphocytes, macrophages and dendritic cells; assay: Primary cells toxicity testing (LDH release); conditions: up to 14 days
[7] = tested on: Dengue virus (DenV); assay: Dengue virus plaque assay on Vero cells; format: cell-based, Serotype 2 New Guinea C strain Dengue virus; conditions: 300 μM PD
[8] = tested on: primary HIV-1 isolates; assay: microbe, parasite or virus in culture; format: cell-based; conditions: Human immunodeficiency virus 1, TZM-bl
[9] = tested on: Sindbis virus (SINV); format: cell-based
[10] = SIVsyk1.2, PD in DMEM with 10% fetal bovine serum

## N=C1Sc2ccccc2C2=NCCCN12 [PD, PD 404,182]
[1]
  DC to T cell transmission of HIV-1: prevents subsequent T cell infection with the pseudotyped virus
[2]; SIVmoc251 32H, PD in DMEM with 10% fetal bovine serum
  IC90: 6.2 µM
[2]; [10]
  IC50: 1.8 µM
  IC90: 5.4 µM
[3]; MOI 1
  effect on HSV-2 infection: partial protection
[3]; MOI from 0.0001 to 0.1
  effect on HSV-2 infection: inhibit both HSV-1 and HSV-2 infection
[4]; MOI 1
  effect on HSV-1 infection: partial protection
[4]; MOI from 0.0001 to 0.1
  effect on HSV-1 infection: inhibit both HSV-1 and HSV-2 infection
[5]; 300 μM PD, 37° C., 30 min
  effect on Lactobacillus strains: no adverse effect
[5]; vaginal commensal bacteria Lactobacilli
  CC50: > 300 µM
[6]
  CC50: > 300 µM
[7]
  effect on infectivity of DenV: no significant inhibitory effect
[8]; HIV-1 92HT599 (clade B, X4), PD in DMEM with 10% fetal bovine serum, IC90 per footnote
  IC90: 5.8 µM
[8]; HIV-1 92HT599 (clade B, X4), PD in cervical fluids, IC90 per footnote
  IC90: 6.4 µM
[8]; HIV-1 92HT599 (clade B, X4), PD in seminal plasma, IC90 per footnote
  IC90: 6.31 µM
[8]; HIV-1 92RW021 (clade A, R5), PD in DMEM with 10% fetal bovine serum, IC90 per footnote
  IC90: 3.8 µM
[8]; HIV-1 92RW021 (clade A, R5), PD in cervical fluids, IC90 per footnote
  IC90: 4.4 µM
[8]; HIV-1 92TH003 (clade E, R5), PD in DMEM with 10% fetal bovine serum, IC90 per footnote
  IC90: 8.6 µM
[8]; HIV-1 92TH003 (clade E, R5), PD in cervical fluids, IC90 per footnote
  IC90: 7.8 µM
[8]; HIV-1 92TH003 (clade E, R5), PD in seminal plasma, IC90 per footnote
  IC90: 6.73 µM
[8]; HIV-1 92TH029 (clade B, R5), PD in DMEM with 10% fetal bovine serum, IC90 per footnote
  IC90: 2.8 µM
[8]; HIV-1 92TH029 (clade B, R5), PD in cervical fluids, IC90 per footnote
  IC90: 3.3 µM
[8]; HIV-1 92TH029 (clade B, R5), PD in seminal plasma, IC90 per footnote
  IC90: 2.95 µM
[8]; HIV-1 92UG024 (clade D, X4), PD in DMEM with 10% fetal bovine serum
  IC50: 0.33 µM
[8]; HIV-1 92UG024 (clade D, X4), PD in DMEM with 10% fetal bovine serum, IC90 per footnote
  IC90: 1.4 µM
[8]; HIV-1 92UG024 (clade D, X4), PD in cervical fluids, IC90 per footnote
  IC90: 1.8 µM
[8]; HIV-1 92UG024 (clade D, X4), PD in seminal plasma, IC90 per footnote
  IC90: 1.68 µM
[8]; HIV-1 92UG029 (clade A, X4), PD in DMEM with 10% fetal bovine serum, IC90 per footnote
  IC90: 4.4 µM
[8]; HIV-1 92UG029 (clade A, X4), PD in cervical fluids, IC90 per footnote
  IC90: 5.3 µM
[8]; HIV-1 92UQ085 (clade D, R5), PD in DMEM with 10% fetal bovine serum, IC90 per footnote
  IC90: 5.3 µM
[8]; HIV-1 92UQ085 (clade D, R5), PD in cervical fluids, IC90 per footnote
  IC90: 6.7 µM
[8]; HIV-1 92UQ085 (clade D, R5), PD in seminal plasma, IC90 per footnote
  IC90: 6.67 µM
[8]; HIV-1 93BR020 (clade F, X4), PD in DMEM with 10% fetal bovine serum, IC90 per footnote
  IC90: 6.8 µM
[8]; HIV-1 93BR020 (clade F, X4), PD in cervical fluids, IC90 per footnote
  IC90: 7.6 µM
[8]; HIV-1 93BR020 (clade F, X4), PD in seminal plasma, IC90 per footnote
  IC90: 7.19 µM
[8]; HIV-1 93BR028 (clade F, R5), PD in DMEM with 10% fetal bovine serum, IC90 per footnote
  IC90: 3.6 µM
[8]; HIV-1 93BR028 (clade F, R5), PD in cervical fluids, IC90 per footnote
  IC90: 4.6 µM
[8]; HIV-1 93BR028 (clade F, R5), PD in seminal plasma, IC90 per footnote
  IC90: 3.72 µM
[8]; HIV-1 93IN101 (clade C, R5), PD in DMEM with 10% fetal bovine serum, IC90 per footnote
  IC90: 5.1 µM
[8]; HIV-1 93IN101 (clade C, R5), PD in cervical fluids, IC90 per footnote
  IC90: 5.6 µM
[8]; HIV-1 93IN101 (clade C, R5), PD in seminal plasma, IC90 per footnote
  IC90: 5.38 µM
[8]; HIV-1 93TH083 (clade E, X4), PD in DMEM with 10% fetal bovine serum, IC90 per footnote
  IC90: 6.3 µM
[8]; HIV-1 93TH083 (clade E, X4), PD in cervical fluids, IC90 per footnote
  IC90: 6.4 µM
[8]; HIV-1 93TH083 (clade E, X4), PD in seminal plasma, IC90 per footnote
  IC90: 6.66 µM
[8]; HIV-1 98IN017 (clade C, X4), PD in cervical fluids, IC90 per footnote
  IC90: 2.4 µM
[8]; HIV-1 98IN017 (clade C, X4), PD in seminal plasma, IC90 per footnote
  IC90: 2.09 µM
[8]; HIV-1 Jv1063 (clade G, R5), PD in DMEM with 10% fetal bovine serum, IC90 per footnote
  IC90: 3.8 µM
[8]; HIV-1 RU132 (clade G, R5), PD in DMEM with 10% fetal bovine serum
  IC50: 0.8 µM
[8]; HIV-1 RU132 (clade G, R5), PD in DMEM with 10% fetal bovine serum, IC90 per footnote
  IC90: 3.1 µM
[8]; HIV-1 RU132 (clade G, R5), PD in cervical fluids, IC90 per footnote
  IC90: 3.8 µM
[8]; HIV-1 RU132 (clade G, R5), PD in seminal plasma, IC90 per footnote
  IC90: 3.26 µM
[8]; broad range of primary HIV-1 isolates as well as HIV-2
  IC50: ~1 µM
[8]; read-out: IC50, range over the tested subtypes of HIV-1, PD in DMEM, TZM-bl
  IC50: 0.33 to 1.8 µM
[8]; read-out: IC50, range over the tested subtypes of HIV-1, PD in cervical fluid, TZM-bl
  IC50: 0.61 to 2.3 µM
[8]; read-out: IC90, range over the tested subtypes of HIV-1, PD in DMEM, TZM-bl
  IC90: 1.4 to 6.6 µM
[8]; read-out: IC90, range over the tested subtypes of HIV-1, PD in cervical fluid, TZM-bl
  IC90: 1.8 to 7.5 µM
[8]; several isolates of HIV-1 and SIV in TZM-bl cells, PD diluted in DMEM or cervical fluid
  IC50: ~1 µM
[9]
  effect on infectivity of SINV: no significant inhibitory effect
